The record followed here is ChEMBL document CHEMBL1201862, “PubChem BioAssay data set” (2004).

Test [1] in a line: cells.
In the next test the target is Major prion protein (Homo sapiens, UniProt P04156). Type of test: functional, cell-based.
A short description of test [2]: cells. The source holds these as a separate data set.
In the next test the target is Caspase-6 (Homo sapiens, UniProt P55212). The test is described as follows: inhibition of CASP6 peptide cleavage – biochemical, VEID-R110 fluorescence, cherry-pick, dose response (AID 720632).
A short description of test [3]: HIV-1 Vif–A3G interaction blockers – biochemical, TR-FRET, GST-Vif 1-94, biotin-A3G peptide, dose response retest, primary screen (AID 1117319).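 Further: TR-FRET signal of purified GST-Vif binding a biotinylated A3G peptide; inhibitors lower the FRET signal by blocking Vif and A3G binding.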 Type of test: functional.
For a further test, the target named is Nonstructural protein 1 (Influenza A virus, UniProt Q194T2). The format is functional, Influenza A virus (A/California/07/2009(H1N1)).
A short description of test [4]: ATP-based viability loss in HeLa cells – cell-based, CellTiter-Glo luminescence, dry powder, set 2, cytotoxicity control, dose response (AID 720593). Type of test: functional.
The next test has as its target T1, Streptokinase A (Streptococcus pyogenes serotype M1, UniProt P10520).
T1 sequence (P10520 whole entry): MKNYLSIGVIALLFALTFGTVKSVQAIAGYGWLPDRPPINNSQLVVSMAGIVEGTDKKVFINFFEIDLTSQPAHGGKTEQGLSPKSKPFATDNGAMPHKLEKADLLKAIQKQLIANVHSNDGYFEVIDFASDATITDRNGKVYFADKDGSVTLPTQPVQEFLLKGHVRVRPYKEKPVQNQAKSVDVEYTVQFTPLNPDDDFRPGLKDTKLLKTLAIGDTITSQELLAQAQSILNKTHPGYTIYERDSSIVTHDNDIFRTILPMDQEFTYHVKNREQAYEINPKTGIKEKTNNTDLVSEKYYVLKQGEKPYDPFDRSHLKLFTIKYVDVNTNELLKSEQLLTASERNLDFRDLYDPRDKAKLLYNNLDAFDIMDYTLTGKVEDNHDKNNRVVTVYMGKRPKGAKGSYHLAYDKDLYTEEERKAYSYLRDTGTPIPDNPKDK
Nature of the test: viability-normalized secreted streptokinase activity reduction – plasminogen activation absorbance, OD405, dose response (AID 1914).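 Further: secreted streptokinase activity via plasminogen activation per viability signal from cell pellet.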 Type of test: functional, Streptococcus pyogenes M1 GAS.

Test [5] in a line: THP-1 cell cytotoxicity, dose response, cytotoxicity control for non-replicating M. tuberculosis project (AID 489025). The format is functional.
Test [6] can be described thus: cells. The format is functional.
The next test deals with Streptococcus. Nature of the test: GAS UMAA2166 growth inhibition – luminescence, BacTiterGlo, counter-screen for streptokinase expression inhibitor project, dose response (AID 1915).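 Further: potency for reduction of bacterial viability or growth.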 The format is functional, organism-based. (The purpose of a counterscreen is to sort out artefacts and off-target activity.)
The nature of test [7]: Vero E6 cell cytotoxicity, dose response, cytotoxicity control for non-replicating M. tuberculosis project, secondary assay (AID 492998). Type of test: functional, VeroE6. To be noted: Vero C1008.
The nature of test [8]: ATP-based viability loss in HEK293T cells – cell-based, CellTiter-Glo luminescence, dry powder, set 2, cytotoxicity control, dose response (AID 720595). As to conditions: HEK293. The format is functional. On the technique in general: In ATP-based viability assays light output follows the ATP content of the culture.
Test [9] can be described thus: HepG2 cell cytotoxicity, dose response, cytotoxicity control for non-replicating M. tuberculosis project (AID 489018). The format is functional. As to conditions: Mycobacterium tuberculosis.
In test [10] the test system is Streptococcus sp. 'group A'. Nature of the test: Streptococcus pyogenes SK(-)GAS viability under kanamycin – luminescence, BacTiterGlo, confirmation, counter-screen for streptokinase expression inhibitor project, dose response (AID 1900). Type of test: functional, organism-based.
For test [11], the target named is NAD-dependent protein deacylase sirtuin-5, mitochondrial (Homo sapiens, UniProt Q9NXA8). The test is described as follows: blockers of sirtuin-5 peptide desuccinylation – biochemical, fluorescence imaging, cherry-pick, set 6, dose response (AID 720597).
Another test relates to HEK293. The test is described as follows: viability loss in HEK293T cells – cell-based, ATP luminescence, cherry-pick samples, cytotoxicity control, dose response (AID 687005).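 Further: cells exposed to compound for 48 hours.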 The format is functional. As to conditions: Homo sapiens.
A short description of test [12]: HEK293 Cytotoxicity Assay Measured in Cell-Based System Using Plate Reader - 7071-01_Inhibitor_Dose_CherryPick_Activity_Set2. The format is functional.
The nature of test [13]: IGROV1 cell killing – plate reader, dry powder samples, PAX8 inhibitor project, dose response (AID 743043). The format is functional, cell-based. To be noted: IGROV-1.
The target of another test is Paired box protein Pax-8 (Homo sapiens, UniProt Q06710). Nature of the test: PAX8 transcriptional activity inhibition in RMG-I – RMG-I cells, luciferase, cherry-pick, dose response (AID 687027).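 Further: luciferase reporter driven by Pax8 target thyroperoxidase promoter measured by SteadyGlo luminescence.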 The format is functional, cell-based.
The nature of test [14]: OVCAR8 cell viability loss – plate reader, dry powder samples, PAX8 project, dose response (AID 743197). The format is functional, cell-based. As to conditions: OVCAR-8.
The nature of test [15]: A2780 cell killing – plate reader, dry powder samples, cytotoxicity control, dose response (AID 743046). The format is functional, cell-based.
Test [16] in a line: OVCAR-3 cell viability loss – plate reader, dry powder samples, PAX8 inhibitor project, dose response (AID 743044). Type of test: functional, cell-based.
Test [17] is described as follows: viability loss in HEK293 kidney cells – cell-based, cherry-picks, set 5, cytotoxicity control, dose response (AID 1053117). Type of test: functional.
Test [18] is described as follows: inhibition of bursicon-driven LGR2 cAMP signaling – cell-based, HEK293, CRE-luciferase reporter, cherry pick, dose response (AID 743342). Type of test: functional. Background: A reporter such as luciferase makes a cellular process visible.
Test [19] can be described thus: A549 cell cytotoxicity, dose response, cytotoxicity control, plate reader, cherry-pick, antagonist series (AID 743412). Type of test: functional, cell-based.
The nature of test [20]: blockade of melanocortin 4 receptor signaling – cell-based, plate reader, cherry pick, counter-screen for LGR2 antagonist project, dose response (AID 743444).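 Further: transfected HEK 293 cells stimulated with alpha-MSH peptide; potency of inhibitors of the alpha-MSH evoked signal.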 Type of test: functional.
Test [21] is described as follows: potency of ADAM10 substrate cleavage blockers – biochemical, QFRET, dose response (AID 743254).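 Further: ADAM10 enzyme with the DM2 quenched FRET peptide as substrate; EDANS fluorescence gain as the protease cuts the substrate; inhibitor potency against ADAM10 proteolytic activity.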
Test [22] deals with Disintegrin and metalloproteinase domain-containing protein 17 (Homo sapiens, UniProt P78536). The test is described as follows: inhibition of ADAM17 substrate cleavage – biochemical, quenched FRET substrate, counter-screen for ADAM10 exosite inhibitor project, dose response (AID 743253).

Active and inactive are the calls of the source. Where only a bound is given, the exact number is not on record here.

By IC50 is commonly meant the concentration that inhibits the measured activity by half. As to `CCc1ccc(-c2nc3ccc(Br)cc3c(C(=O)O)c2C)s1`, the results for the IC50 in “cells [1]” and at Major prion protein were > 138 µM (inactive) and 1.24 µM (active), respectively.

As a reminder, the AC50 is the concentration at which the activity in the assay is half-maximal. For the compound `COCCN1C=C(C(=O)OC)C(c2ccc(Cl)cc2)C(C(=O)OC)=C1`, in “cells [2]”, the AC50 was 10.9 µM (active).

Take `O=C(O)c1cc(S(=O)(=O)Nc2ccc3c[nH]nc3c2)ccc1O`: the AC50 on Caspase-6 was 11.3 µM (active).

Take `CCn1c(=O)cc(N2CCC3(CC2)OCCO3)[nH]c1=O`: in [3], the IC50 was > 100 µM (active).

Broadly, the EC50 is the concentration needed to bring the measured effect to its halfway point. By CC50 is commonly meant the concentration giving 50% cytotoxicity. For the compound `O=C(Nc1nc(-c2ccccn2)cs1)c1ccco1`, the IC50 at Nonstructural protein 1 is 7.12 µM (active); in the test “cells [6]”, 1.68 µM (active). Also, the AC50 in test [4] was > 52 µM (inactive); in test [8], 7.58 µM (active). For the same compound, the EC50 is > 150 µM (not active) at Streptokinase A, > 150 µM (not active) in the test on Streptococcus and 10.8 µM (active) in test [10]. Further, the results for the CC50 in [5], in test [7] and in test [9] were 6.1 µM (active), 11.3 µM (active) and > 20 µM (active), respectively.

As to `Cc1cccc(S(=O)(=O)N(C)C[C@H]2OCc3cnnn3CCCC(=O)N([C@H](C)CO)C[C@@H]2C)c1`, the AC50 in [11] was 23.9 µM (active).

Take `O=C(N[C@@H]1CC[C@@H](CCn2cc(-c3ccccc3)nn2)O[C@H]1CO)c1cnccn1`: the AC50 (with HEK293; in test [12]) was 21.8 µM (active) throughout.

Consider `COc1ccc(S(=O)(=O)N(C)C[C@H]2Oc3cc(C#CC4CCCC4)ccc3S(=O)(=O)N([C@@H](C)CO)C[C@@H]2C)cc1`, for which the AC50 in [13] is 57.4 µM (active); at Paired box protein Pax-8 it was 6.49 µM (active); in [14], 31.3 µM (active); in test [15], 8.96 µM (active); in test [16], 21.4 µM (active).

As to `COc1cccc(-c2ccc3c(c2)[C@H]2[C@H](CCN2S(=O)(=O)c2cccc(OC)c2)[C@H](CO)N3)c1`, the AC50 in test [17] was 26.9 µM (active).

On to `C[C@H](CO)N1C[C@H](C)[C@H](CN(C)C(=O)Nc2cccc3ccccc23)OCCCC[C@H](C)Oc2ccc(NC(=O)c3ccccc3)cc2C1=O`, for which the AC50 in [18] was 4.88 µM (active); in test [19], 48 µM (active); in test [20], 52.5 µM (active).

Turning to `Nc1[nH]c(C(=O)c2ccccc2)c(-c2cccc(C(F)(F)F)c2)c1C(=O)NCCc1c[nH]c2ccccc12`, the IC50 in test [21] is > 7.73 µM (active); in test [22], > 69.6 µM (inactive).
